Assay results from PubChem BioAssay (NCI).
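Dose response: 5 concentrations. Exposure: 48 h. Format: 96-well plates. Endpoint: linear interpolation; highest concentration if not reached. TGI is the concentration that stops growth completely.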

What was measured:
Experiment in all cases: NCI tumour cell line growth inhibition, 48 h
786-0 renal = tested on: 786-0 renal
A498 renal = tested on: A498 renal
A549 NSCLC = tested on: A549 NSCLC
ACHN renal = tested on: ACHN renal
CAKI-1 renal = tested on: CAKI-1 renal
CCRF-CEM leukemia = tested on: CCRF-CEM leukemia
COLO 205 colon = tested on: COLO 205 colon
DU-145 prostate = tested on: DU-145 prostate
EKVX NSCLC = tested on: EKVX NSCLC
HCC-2998 colon = tested on: HCC-2998 colon
HCT-116 colon = tested on: HCT-116 colon
HCT-15 colon = tested on: HCT-15 colon
HL-60(TB) leukemia = tested on: HL-60(TB) leukemia
HOP-62 NSCLC = tested on: HOP-62 NSCLC
HOP-92 NSCLC = tested on: HOP-92 NSCLC
HS 578T breast = tested on: HS 578T breast
HT29 colon = tested on: HT29 colon
IGROV1 ovarian = tested on: IGROV1 ovarian
K-562 leukemia = tested on: K-562 leukemia
KM12 colon = tested on: KM12 colon
LOX IMVI melanoma = tested on: LOX IMVI melanoma
M14 melanoma = tested on: M14 melanoma
MALME-3M melanoma = tested on: MALME-3M melanoma
MCF7 breast = tested on: MCF7 breast
MDA-MB-231 breast = tested on: MDA-MB-231 breast
MDA-MB-435 = tested on: MDA-MB-435
MDA-N = tested on: MDA-N
MOLT-4 leukemia = tested on: MOLT-4 leukemia
NCI-H226 lung = tested on: NCI-H226 lung
NCI-H23 lung = tested on: NCI-H23 lung
NCI-H460 lung = tested on: NCI-H460 lung
NCI-H522 lung = tested on: NCI-H522 lung
NCI/ADR-RES ovarian = tested on: NCI/ADR-RES ovarian
OVCAR-3 ovarian = tested on: OVCAR-3 ovarian
OVCAR-4 ovarian = tested on: OVCAR-4 ovarian
OVCAR-5 ovarian = tested on: OVCAR-5 ovarian
OVCAR-8 ovarian = tested on: OVCAR-8 ovarian
PC-3 prostate = tested on: PC-3 prostate
RPMI-8226 leukemia = tested on: RPMI-8226 leukemia
RXF 393 renal = tested on: RXF 393 renal
SF-268 CNS = tested on: SF-268 CNS
SF-295 CNS = tested on: SF-295 CNS
SF-539 CNS = tested on: SF-539 CNS
SK-MEL-2 melanoma = tested on: SK-MEL-2 melanoma
SK-MEL-28 melanoma = tested on: SK-MEL-28 melanoma
SK-MEL-5 melanoma = tested on: SK-MEL-5 melanoma
SK-OV-3 ovarian = tested on: SK-OV-3 ovarian
SN12C renal = tested on: SN12C renal
SNB-19 CNS = tested on: SNB-19 CNS
SNB-75 CNS = tested on: SNB-75 CNS
SR leukemia = tested on: SR leukemia
SW-620 colon = tested on: SW-620 colon
T-47D breast = tested on: T-47D breast
TK-10 renal = tested on: TK-10 renal
U251 CNS = tested on: U251 CNS
UACC-257 melanoma = tested on: UACC-257 melanoma
UACC-62 melanoma = tested on: UACC-62 melanoma
UO-31 renal = tested on: UO-31 renal

Cc1ccc2nc(Nc3ccccc3C)c(Nc3ccccc3C)nc2c1
TGI (786-0 renal): > 100 µM
TGI (A498 renal): 69.6 µM
TGI (A549 NSCLC): 49.1 µM
TGI (ACHN renal): > 100 µM
TGI (CAKI-1 renal): > 95.7 µM
TGI (CCRF-CEM leukemia): > 80.6 µM
TGI (COLO 205 colon): 30.6 µM
TGI (DU-145 prostate): > 100 µM
TGI (EKVX NSCLC): > 100 µM
TGI (HCC-2998 colon): 61.3 µM
TGI (HCT-116 colon): 40.2 µM
TGI (HCT-15 colon): 58.7 µM
TGI (HL-60(TB) leukemia): > 74.6 µM
TGI (HOP-62 NSCLC): > 100 µM
TGI (HOP-92 NSCLC): 54.1 µM
TGI (HS 578T breast): > 100 µM
TGI (HT29 colon): > 81.1 µM
TGI (IGROV1 ovarian): > 100 µM
TGI (K-562 leukemia): > 57.4 µM
TGI (KM12 colon): 45.8 µM
TGI (LOX IMVI melanoma): 39.5 µM
TGI (M14 melanoma): 81.8 µM
TGI (MALME-3M melanoma): 48.8 µM
TGI (MCF7 breast): > 100 µM
TGI (MDA-MB-231 breast): > 100 µM
TGI (MDA-MB-435): > 94.2 µM
TGI (MDA-N): 67.1 µM
TGI (MOLT-4 leukemia): > 100 µM
TGI (NCI-H226 lung): > 89.7 µM
TGI (NCI-H23 lung): 45.6 µM
TGI (NCI-H460 lung): 45 µM
TGI (NCI-H522 lung): 35.9 µM
TGI (NCI/ADR-RES ovarian): > 100 µM
TGI (OVCAR-3 ovarian): 52.3 µM
TGI (OVCAR-4 ovarian): > 100 µM
TGI (OVCAR-5 ovarian): 47.5 µM
TGI (OVCAR-8 ovarian): > 100 µM
TGI (PC-3 prostate): > 100 µM
TGI (RPMI-8226 leukemia): > 100 µM
TGI (RXF 393 renal): > 58.1 µM
TGI (SF-268 CNS): > 100 µM
TGI (SF-295 CNS): 52.3 µM
TGI (SF-539 CNS): > 100 µM
TGI (SK-MEL-2 melanoma): 31.7 µM
TGI (SK-MEL-28 melanoma): > 100 µM
TGI (SK-MEL-5 melanoma): > 63.8 µM
TGI (SK-OV-3 ovarian): > 100 µM
TGI (SN12C renal): > 100 µM
TGI (SNB-19 CNS): > 100 µM
TGI (SNB-75 CNS): > 96.6 µM
TGI (SR leukemia): > 100 µM
TGI (SW-620 colon): > 100 µM
TGI (T-47D breast): > 100 µM
TGI (TK-10 renal): > 92.7 µM
TGI (U251 CNS): > 70 µM
TGI (UACC-257 melanoma): 72.3 µM
TGI (UACC-62 melanoma): > 90.7 µM
TGI (UO-31 renal): 60.8 µM
